Assay results taken from patent US7432260B2, “Pyrimidine compounds” (Cyclacel Limted, priority 2002, dated 2008).
pIC50: −log10 of the molar value. Where two headings read alike, the source gives them in different places.

Experiments:
[1] = target: SAPK2a (stress-activated protein kinase 2a) (Homo sapiens, UniProt Q16539); test: Kinase assay SAPK2a; type: biochemical; conditions: Table 3 selectivity panel; read-out: Kinase specificity IC50 SAPK2a
Experimental: (§1) Kinase assays. […] This was achieved by measurement of incorporation of radioactive phosphate from ATP into appropriate polypeptide substrates. Recombinant protein kinases and kinase complexes were produced or obtained commercially. Assays were performed using 96-well plates and appropriate assay buffers (typically 25 mM β-glycerophosphate, 20 mM MOPS, 5 mM EGTA, 1 mM DTT, 1 mM […], pH 7.4), into which were added 2-4 μg of active enzyme with appropriate substrates. The reactions were initiated by addition of Mg/ATP mix (15 mM MgCl2+100 μM ATP with 30-50 kBq per well of [γ-^32P]-ATP) and mixtures incubated as required at 30° C. Reactions were stopped on ice, followed by filtration through p81 filterplates or GF/C filterplates (Whatman Polyfiltronics, Kent, UK). After washing 3 times with 75 mM aq orthophosphoric acid, plates were dried, scintillant added and incorporated radioactivity measured in a scintillation counter (TopCount, Packard Instruments, Pangbourne, Berks, UK). Compounds for kinase assay were made-up as 10 mM stocks in DMSO and diluted into 10% DMSO inrassay buffer.

Hela = test: 72-h MTT cytotoxicity assay Hela; type: cell-based; conditions: Homo sapiens, Table 5, Cervix
Experimental: (§2) MTT cytotoxicity assay. […] Standard 72-h MTT (thiazolyl blue; 3-[4,5-dimethylthiazol-2-yl]-2,5-diphenyltetrazolium bromide) assays were performed (Haselsberger, K.; Peterson, D. C.; Thomas, D. G.; Darling, J. L. Anti Cancer Drugs 1996, 7, 331-8; Loveland, B. E.; Johns, T. G.; Mackay, I. R.; Vaillant, F.; Wang, Z. X.; Hertzog, P. J. Biochemistry International 1992, 27, 501-10). In short: cells were seeded into 96-well plates according to doubling time and incubated overnight at 37° C. Test compounds were made up in DMSO and a 1/3 dilution series prepared in 100 μL cell media, added to cells (in triplicates) and incubated for 72 ho at 37° C. MTT was made up as a stock of 5 mg/mL in cell media and filter-sterilised. Media was removed from cells followed by a wash with 200 μL PBS.
(§3) MTT solution was then added at 20 μL per well and incubated in the dark at 37° C. for 4 h. MTT solution was removed and cells again washed with 200 μL PBS. MTT dye was solubilised with 200 μL per well of DMSO with agitation.

HCT-116 = test: 72-h MTT cytotoxicity assay HCT-116; type: cell-based; conditions: Homo sapiens, HCT-116, 72 h; Table 5; Colon
Experimental: as §2, §3

HL60 = test: 72-h MTT cytotoxicity assay HL60; type: cell-based; conditions: Homo sapiens, HL-60, 72 h; Table 5; Promyelocytic leukaemia
Experimental: as §2, §3

Messa-Dx5 = test: 72-h MTT cytotoxicity assay Messa-Dx5; type: cell-based; conditions: Homo sapiens, MES-SA/Dx5, 72 h; Table 5; Uterine
Experimental: as §2, §3

all transformed cells = test: 72-h MTT cytotoxicity assay, summary over all transformed cells; type: cell-based; conditions: Homo sapiens
Experimental: as §2, §3

Hs27 = test: 72-h MTT cytotoxicity assay Hs27; type: cell-based; conditions: Homo sapiens, HS27, 72 h; Table 5; Foreskin fibroblast (non-transformed)
Experimental: as §2, §3

IMR-90 = test: 72-h MTT cytotoxicity assay IMR-90; type: cell-based; conditions: Homo sapiens, IMR-90, 72 h; Table 5; Foetal lung fibroblast (non-transformed)
Experimental: as §2, §3

PLK-1 = PLK-1 (Homo sapiens, UniProt P53350); test: Kinase assay PLK-1; type: biochemical
PLK-1, sequence (P53350 whole entry): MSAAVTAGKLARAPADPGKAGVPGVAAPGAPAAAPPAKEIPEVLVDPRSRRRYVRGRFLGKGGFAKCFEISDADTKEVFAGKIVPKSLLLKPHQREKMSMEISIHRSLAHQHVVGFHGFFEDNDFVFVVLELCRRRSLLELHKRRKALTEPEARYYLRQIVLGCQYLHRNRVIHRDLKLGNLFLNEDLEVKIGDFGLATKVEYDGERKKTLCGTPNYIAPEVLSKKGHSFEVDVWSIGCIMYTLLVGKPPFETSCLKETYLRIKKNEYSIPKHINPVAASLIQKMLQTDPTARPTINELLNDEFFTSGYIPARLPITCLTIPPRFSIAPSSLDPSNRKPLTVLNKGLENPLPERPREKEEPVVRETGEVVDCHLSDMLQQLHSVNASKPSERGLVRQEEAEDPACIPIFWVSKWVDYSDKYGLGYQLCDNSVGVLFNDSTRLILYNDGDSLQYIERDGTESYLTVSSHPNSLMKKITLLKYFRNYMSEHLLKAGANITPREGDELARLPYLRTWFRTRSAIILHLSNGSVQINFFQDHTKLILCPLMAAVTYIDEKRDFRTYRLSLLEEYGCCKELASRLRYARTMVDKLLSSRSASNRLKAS
Experimental: as §1

[2] = target: Akt/PKB (protein kinase B) (Homo sapiens, UniProt P31749); test: Kinase assay Akt/PKB; type: biochemical; conditions: Table 3 selectivity panel; read-out: Kinase specificity IC50 Akt/PKB
Akt/PKB (protein kinase B), sequence (P31749 whole entry): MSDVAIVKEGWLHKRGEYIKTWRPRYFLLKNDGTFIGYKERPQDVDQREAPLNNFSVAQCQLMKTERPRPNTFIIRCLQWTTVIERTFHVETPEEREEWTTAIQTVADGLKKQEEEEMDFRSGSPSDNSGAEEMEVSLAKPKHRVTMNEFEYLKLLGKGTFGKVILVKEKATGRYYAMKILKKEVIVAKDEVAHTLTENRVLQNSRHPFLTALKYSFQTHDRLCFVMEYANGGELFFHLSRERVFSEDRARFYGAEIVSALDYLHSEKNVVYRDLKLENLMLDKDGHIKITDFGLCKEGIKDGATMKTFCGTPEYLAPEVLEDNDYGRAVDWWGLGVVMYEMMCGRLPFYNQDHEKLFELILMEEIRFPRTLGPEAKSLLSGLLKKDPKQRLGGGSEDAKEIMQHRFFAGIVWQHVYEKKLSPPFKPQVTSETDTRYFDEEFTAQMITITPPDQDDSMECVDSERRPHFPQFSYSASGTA
Experimental: as §1

[3] = target: CaMKII (calmodulin-depependent kinase II); test: Kinase assay CaMKII; type: biochemical; conditions: Table 3 selectivity panel; read-out: Kinase specificity IC50 CaMKII
Experimental: as §1

CDK2/cyclin A = CDK2/cyclin A (Homo sapiens, UniProt P24941); test: Kinase assay CDK2/cyclin A; type: biochemical
In short: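 Enzyme + substrate in β-glycerophosphate/MOPS/EGTA/DTT buffer, pH 7.4 → Mg/ATP (100 μM ATP, γ-32P) start → 30° C incubation → ice stop → P81 or GF/C filtration, H3PO4 wash → scintillation count.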

[4] = Table 5, average over transformed cell lines, read-out: 72-h MTT IC50 Average (all transformed cells)
[5] = Table 5, median over transformed cell lines, read-out: 72-h MTT IC50 Median (all transformed cells)
[6] = Table 2, read-out: Kinase Inhibition IC50 PLK-1
[7] = Table 3 selectivity panel, read-out: Kinase specificity IC50 PLK1
[8] = Table 2, read-out: Kinase Inhibition IC50 CDK2 cyclin A
[9] = Table 3 selectivity panel, read-out: Kinase specificity IC50 CDK2/A

SAPK2a (stress-activated protein kinase 2a), sequence (Q16539 whole entry, species assumed): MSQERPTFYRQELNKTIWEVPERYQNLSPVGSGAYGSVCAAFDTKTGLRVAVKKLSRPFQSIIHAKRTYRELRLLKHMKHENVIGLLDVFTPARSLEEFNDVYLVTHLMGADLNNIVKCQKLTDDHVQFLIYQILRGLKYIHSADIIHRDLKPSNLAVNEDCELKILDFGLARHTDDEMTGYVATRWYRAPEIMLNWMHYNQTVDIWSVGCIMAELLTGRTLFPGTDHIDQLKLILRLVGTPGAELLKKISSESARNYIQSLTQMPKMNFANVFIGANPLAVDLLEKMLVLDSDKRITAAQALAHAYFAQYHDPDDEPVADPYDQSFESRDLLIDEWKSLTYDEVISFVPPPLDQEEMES

Cc1nc(N)sc1-c1ccnc(Nc2ccc(N3CCOCC3)cc2)n1 [Compound 1, [4-(2-Amino-4-methyl-thiazol-5-yl)-pyrimidin-2-yl]-(4-morpholin-4-yl-phenyl)-amine]
pIC50 [1]: < 4.00
pIC50 (Hela): 5.74
pIC50 (HCT-116): 6.05
pIC50 (HL60): 5.74
pIC50 (Messa-Dx5): 6.70
pIC50 (all transformed cells; [4]): 5.96
pIC50 (all transformed cells; [5]): 6.00
pIC50 (Hs27): < 5.30
pIC50 (IMR-90): < 5.30

CNc1nc(C)c(-c2ccnc(Nc3ccc(N4CCOCC4)cc3)n2)s1 [Compound 3, [4-(2-N-Methylamino-4-methyl-thiazol-5-yl)-pyrimidin-2-yl]-(4-morpholinophenyl)-amine]
pIC50 (PLK-1; [6]): < 3.82
pIC50 (PLK-1; [7]): < 4.00
pIC50 [2]: < 4.00
pIC50 [1]: < 4.00
pIC50 [3]: < 4.00

CCNc1nc(C)c(-c2ccnc(Nc3ccc(N4CCOCC4)cc3)n2)s1 [Compound 4, [4-(2-Ethylamino-4-methyl-thiazol-5-yl)-pyrimidin-2-yl]-(4-morpholin-4-yl-phenyl)-amine]
pIC50 (PLK-1; [6]): < 4.00

CNc1nc(C)c(-c2ccnc(Nc3ccc(N4CCN(Cc5ccccc5)CC4)cc3)n2)s1 [Compound 11, [4-(4-Benzyl-piperazin-1-yl)-phenyl]-[4-(4-methyl-2-methylamino-thiazol-5-yl)-pyrimidin-2-yl]-amine]
pIC50 (CDK2/cyclin A; [8]): 5.66
pIC50 (CDK2/cyclin A; [9]): 5.66
pIC50 (PLK-1; [6]): 4.72
pIC50 (PLK-1; [7]): 4.72
pIC50 [2]: < 4.00
pIC50 [1]: < 4.00
pIC50 [3]: 4.25
pIC50 (Hela): 5.21
pIC50 (HCT-116): 6.22
pIC50 (HL60): 5.77
pIC50 (Messa-Dx5): 6.70
pIC50 (all transformed cells; [4]): 5.80
pIC50 (all transformed cells; [5]): 5.96
pIC50 (Hs27): 4.72
pIC50 (IMR-90): 4.51

Cc1nc(NC(=O)[C@H](N)[C@@H](C)O)sc1-c1ccnc(Nc2cccc([N+](=O)[O-])c2)n1 [Compound 15, (2R,3R)-2-Amino-3-hydroxy-N-{4-methyl-5-[2-(3-nitro-phenylamino)-pyrimidin-4-yl]-thiazol-2-yl}-butyramide]
pIC50 (CDK2/cyclin A; [8]): 6.07
pIC50 (CDK2/cyclin A; [9]): 6.40
pIC50 (PLK-1; [6]): < 3.82
pIC50 (PLK-1; [7]): < 4.00
pIC50 [2]: < 4.00
pIC50 [1]: < 4.00
pIC50 [3]: 5.41
pIC50 (Hela): 6.15
pIC50 (HCT-116): 6.22
pIC50 (HL60): 5.66
pIC50 (Messa-Dx5): 6.40
pIC50 (all transformed cells; [4]): 5.92
pIC50 (all transformed cells; [5]): 6.05
pIC50 (Hs27): 5.77
pIC50 (IMR-90): 5.60

CC[C@@H](N)C(=O)Nc1nc(C)c(-c2ccnc(Nc3cccc([N+](=O)[O-])c3)n2)s1 [Compound 16, (2R)-2-Amino-N-{4-methyl-5-[2-(3-nitro-phenylamino)-pyrimidin-4-yl]-thiazol-2-yl}-butyramide]
pIC50 (CDK2/cyclin A; [8]): 6.19
pIC50 (CDK2/cyclin A; [9]): 6.19
pIC50 (PLK-1; [6]): < 3.82
pIC50 (PLK-1; [7]): < 4.00
pIC50 [2]: < 4.00
pIC50 [1]: < 4.00
pIC50 [3]: 4.96
pIC50 (Hela): 6.40
pIC50 (HCT-116): 6.52
pIC50 (HL60): 6.22
pIC50 (Messa-Dx5): 7.00
pIC50 (all transformed cells; [4]): 6.22
pIC50 (all transformed cells; [5]): 6.40
pIC50 (Hs27): < 5.30
pIC50 (IMR-90): 5.77

Cc1nc(C)c(-c2ccnc(Nc3ccc(NC(=O)CN4CCCC4)cc3)n2)s1 [Compound 53, N-{4-[4-(2,4-Dimethyl-thiazol-5-yl)-pyrimidin-2-ylamino]-phenyl}-2-pyrrolidin-1-yl-acetamide]
pIC50 (CDK2/cyclin A; [8]): 5.28
